# Biological target: T1, FLT3 (Homo sapiens, UniProt P36888)
# T1 construct: purchased Eurofins
# T1 sequence (P36888 27-993): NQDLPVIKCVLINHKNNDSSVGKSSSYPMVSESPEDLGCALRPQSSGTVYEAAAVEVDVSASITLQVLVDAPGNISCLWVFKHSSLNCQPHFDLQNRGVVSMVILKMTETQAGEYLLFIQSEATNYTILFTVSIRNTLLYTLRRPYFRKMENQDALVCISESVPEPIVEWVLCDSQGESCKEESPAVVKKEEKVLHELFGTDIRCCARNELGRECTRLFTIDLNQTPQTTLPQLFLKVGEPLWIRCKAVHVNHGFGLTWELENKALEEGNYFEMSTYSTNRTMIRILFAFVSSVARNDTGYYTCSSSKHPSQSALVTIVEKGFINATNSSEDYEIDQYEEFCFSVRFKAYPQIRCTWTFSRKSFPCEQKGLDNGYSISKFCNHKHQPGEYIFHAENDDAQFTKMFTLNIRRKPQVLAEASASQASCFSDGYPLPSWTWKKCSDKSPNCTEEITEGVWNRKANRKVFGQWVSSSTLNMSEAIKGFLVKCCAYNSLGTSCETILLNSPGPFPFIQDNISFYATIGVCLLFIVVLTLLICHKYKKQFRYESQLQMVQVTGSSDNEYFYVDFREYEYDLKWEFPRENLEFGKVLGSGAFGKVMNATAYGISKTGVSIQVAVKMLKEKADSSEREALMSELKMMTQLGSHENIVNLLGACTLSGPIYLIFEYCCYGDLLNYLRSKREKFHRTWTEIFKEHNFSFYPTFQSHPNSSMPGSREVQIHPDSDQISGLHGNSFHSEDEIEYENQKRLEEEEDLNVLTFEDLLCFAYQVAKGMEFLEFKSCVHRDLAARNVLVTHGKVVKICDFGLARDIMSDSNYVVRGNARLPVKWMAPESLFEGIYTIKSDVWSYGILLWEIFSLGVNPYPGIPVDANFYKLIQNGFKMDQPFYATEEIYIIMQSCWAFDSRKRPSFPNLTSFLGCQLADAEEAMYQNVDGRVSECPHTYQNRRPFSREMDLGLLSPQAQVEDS
# Assay: In vitro kinase activity experiment, FLT3
# Format: biochemical
# Summary of the method: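 Radiometric filter-binding kinase assay: each kinase with its substrate, γ33P-ATP, 10 mM magnesium acetate and graded compound in 8 mM MOPS pH 7.0, 0.2 mM EDTA, 10 mM MnCl2. MgATP-started, 40 min at room temperature, stopped with 3% phosphate. Spotted on Filtermat A, washed, scintillation-counted.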
structure (smiles),measurement,setting,value
"Cc1cnc(Nc2ccc(N3CCC(N(C)CCO)CC3)c(F)c2)nc1-c1cnn(C(C)C)c1 [CLJ-44, 5-methyl-N-(3-fluoro-4-(4-N-hydroxyethyl-4-N-methylaminopiperidine-1-yl)phenyl)-4-(1-isopropyl-1H-pyrazole-4-yl) pyrimidine-2-amine]",IC50,,4 nM
same,inhibition at 0.5 µM,"40 min, read-out: Kinase activity @ 500 nM (%) FLT3",99%

# — patent US12428394B2, “2,4-disubstituted pyrimidine derivative, preparation method therefor and use thereof” (CHENGDU ZENITAR BIOMEDICAL TECHNOLOGY CO., LTD., priority 2019, dated 2025)
